Read-outs that look alike come from different tables or passages of the source.
Assays:
[1] = system: T. b. rhodesiense (STIB900, trypomastigotes); experiment: in vitro activity on T. b. rhodesiense, serial dilution assay; format: cell-based, Trypanosoma brucei rhodesiense; conditions: for IC50: 72 h exposure, means of two independent assays ± deviation from the mean, read-out: IC50 T. b. rhodesiense; for Selectivity index (SI) T. b. rhodesiense: SI = IC50 cytotoxicity (L6)/IC50 in T. b. rhodesiense
Experimental: (§1) The in vitro activity was assessed on T. b. rhodesiense (STIB900, trypomastigotes), T. cruzi (Tulahuen C2C4, intracellular amastigotes), L. donovani (MHOM-ET-67/L82, axenically grown amastigotes), P. falciparum (NF54, intraerythrocytic), and L6 cells (ATCC, CRL-1458™, rat skeletal myoblasts) as previously described ([Bernal et al., 2020]). The activities were determined in serial dilution assays with 72 h compound exposure, respectively 96 h for intracellular T. cruzi. Results are expressed in µg/mL for extracts and in µM for pure compounds. The IC50 values were determined for the compounds only when they were <50 µM.

[2] = system: T. cruzi (Tulahuen C2C4, intracellular amastigotes); experiment: in vitro activity on T. cruzi, serial dilution assay; format: cell-based, Trypanosoma cruzi; conditions: for IC50: 96 h exposure, means of two independent assays ± deviation from the mean, read-out: IC50 T. cruzi; for Selectivity index (SI) T. cruzi: SI = IC50 cytotoxicity (L6)/IC50 in T. cruzi
Experimental: as §1

[3] = system: L. donovani (MHOM-ET-67/L82, axenically grown amastigotes); experiment: in vitro activity on L. donovani, serial dilution assay; format: cell-based, Leishmania donovani; conditions: for IC50: axenic amastigotes, 72 h exposure, means of two independent assays ± deviation from the mean, read-out: IC50 L. donovani; for Selectivity index (SI) L. donovani: SI = IC50 cytotoxicity (L6)/IC50 in L. donovani
Experimental: as §1

[4] = system: P. falciparum (NF54, intraerythrocytic); experiment: in vitro activity on P. falciparum, serial dilution assay; format: cell-based, Plasmodium falciparum; conditions: for IC50: 72 h exposure, means of two independent assays ± deviation from the mean, read-out: IC50 P. falciparum; for Selectivity index (SI) P. falciparum: SI = IC50 cytotoxicity (L6)/IC50 in P. falciparum
Experimental: as §1

cytotoxicity in L6 cells = format: cell-based, rat; conditions: rat
Experimental: as §1

P. falciparum = conditions: cited from earlier work
[5] = system: intracellular L. donovani amastigotes in mouse macrophages; experiment: intracellular L. donovani amastigotes in mouse macrophages; format: cell-based, Leishmania donovani; conditions: not active, read-out: IC50 against intracellular L. donovani amastigotes
Text: The antiparasitic activity of myricitrin (1) and quercitrin (2) was already described in the literature ([Muzitano et al., 2006]; [Larit et al., 2021]), and therefore it was not evaluated in the present study. Compound 3 was the only compound evaluated from the extract of C. sieberiana and was compared to the activity of miltefosine due to structural similarities. […] Among the cyclopeptide alkaloids isolated from the DCM extract of Z. mauritiana (4, 5, 7–12), a methoxy group at C-13 (10–12) seems to be favorable for the antiplasmodial activity. In addition, the indole group at C-29 present in compounds 9 and 12 seems to be important for the activity against T. b. rhodesiense. […] This is the first report on the antileishmanial and antitrypanosomal activities of these compounds. […] This is in agreement with our study. Among the triterpene derivatives isolated from the DCM root bark extract of Z. mauritiana (6, 13–19), betulinic acid (19), an already well-studied compound, was not tested in this work. […] The triterpenoids tested in the present work (Table 3) were mainly active against L. donovani and presented a good selectivity index. The substitution with an epoxy group in compound 13 compared to compound 6 enhanced the activity toward L. donovani and P. falciparum but not against T. cruzi. […]

[6] = system: L6 cells (ATCC, CRL-1458, rat skeletal myoblasts); experiment: cytotoxicity in L6 cells; format: cell-based; conditions: rat, 72 h
Experimental: as §1

T. b. rhodesiense = conditions: previously reported; ref Cretton et al., 2015; read-out: IC50 against T. b. rhodesiense; cited from earlier work
Leishmania spp. = system: Leishmania spp.; set-up: method as in Rocha et al., 2022; conditions: no significant activity; ref Rocha et al., 2022; read-out: IC50 against Leishmania spp.; cited from earlier work
T. cruzi = conditions: read-out: IC50 against T. cruzi, cited from earlier work
L. amazonensis = system: L. amazonensis; set-up: method as in Costa et al., 2018; conditions: ref Costa et al., 2018; read-out: IC50 against L. amazonensis; cited from earlier work
[7] = Trypanosoma cruzi, TULAHUEN, 96 h
[8] = Plasmodium falciparum, NF54, 72 h
[9] = already reported, ref Suksamrarn et al., 2006, Panseeta et al., 2011, Tuenter et al., 2017, read-out: antiplasmodial activity IC50
[10] = L6 cells (rat skeletal myoblasts, ATCC CRL-1458), rat skeletal myoblast (L6 cells), 72 h exposure, means of two independent assays ± deviation from the mean, read-out: IC50 Cytotoxicity

CN[C@H](C)C(=O)N[C@H](C(=O)N1CC[C@@H]2Oc3ccc(OC)c(c3)/C=C\NC(=O)[C@H](Cc3ccccc3)NC(=O)[C@H]21)C(C)C [Compound 11, N-demethylamphibine H]
IC50 ([1]; Trypanosoma brucei, 72 h): > 50 µM | IC50 [2, 7]: > 50 µM | IC50 ([3]; Leishmania donovani, 72 h): 44.8 ± 3.4 µM | Selectivity index (SI) L. donovani [3]: > 1.5 | IC50 [4, 8]: 14.7 ± 4.2 µM | Selectivity index (SI) P. falciparum [4]: > 5.4 | IC50 at 72 h (cytotoxicity in L6 cells; IC50 Cytotoxicity): > 50 µM | IC50 (P. falciparum; [9]): 3.6 µM

CCC(C)[C@@H]1NC(=O)[C@@H]2[C@H](CCN2C(=O)[C@H](Cc2c[nH]c3ccccc23)NC(=O)[C@H](CC(C)C)NC)Oc2ccc(OC)c(c2)/C=C\NC1=O (some centres unmarked) [Compound 12, mauritine M]
Selectivity index (SI) T. b. rhodesiense [1]: 5.0 | IC50 ([1]; Trypanosoma brucei, 72 h): 6.4 ± 2 µM | Selectivity index (SI) T. cruzi [2]: 2.0 | IC50 [2, 7]: 15.7 ± 1.1 µM | IC50 ([3]; Leishmania donovani, 72 h): > 50 µM | IC50 [4, 8]: 2.6 ± 0.2 µM | Selectivity index (SI) P. falciparum [4]: 12.2 | IC50 at 72 h (cytotoxicity in L6 cells; IC50 Cytotoxicity): 31.8 ± 7.6 µM | IC50 (P. falciparum; [9]): 3.7 µM

C=C(C)C1CCC2(C(=O)O)CCC3(C)C(CCC4C5(C)C(C(=O)O)C(OC(=O)c6ccccc6)C(C)(C)C5CCC43C)C12 [Compound 15, (1R, 3S)-3-O-benzoyl ceanothic acid]
IC50 [1]: 11.7 ± 1 µM | Selectivity index (SI) T. b. rhodesiense [1]: 1.4 | Selectivity index (SI) T. cruzi [2]: 0.4 | IC50 [2, 7]: 43.8 ± 8.4 µM | Selectivity index (SI) L. donovani [3]: 32.8 | IC50 [3]: 0.5 ± 0.2 µM | IC50 [4, 8]: 10.1 ± 0.6 µM | Selectivity index (SI) P. falciparum [4]: 1.6 | IC50 at 72 h (cytotoxicity in L6 cells; IC50 Cytotoxicity): 16.4 ± 5.8 µM | IC50 ([5]; Leishmania donovani, Macrophage): > 50 µM

C=C(C)C1CCC2(C(=O)O)CCC3(C)C(CCC4C5(C)C(C(=O)O)C(OC(=O)c6ccccc6)C(C)(C)C5CCC43C)C12 [Compound 16, (1S, 3S)-3-O-benzoyl ceanothic acid]
IC50 [1]: 30.6 ± 2.8 µM | Selectivity index (SI) T. b. rhodesiense [1]: 1.1 | IC50 [2]: > 50 µM | Selectivity index (SI) L. donovani [3]: 17.9 | IC50 [3]: 1.8 ± 0.7 µM | IC50 [4]: 15.3 ± 1.5 µM | Selectivity index (SI) P. falciparum [4]: 2.1 | IC50 [6]: 32.3 ± 5.1 µM | IC50 [5]: > 50 µM

C=C(C)[C@@H]1CC[C@]2(C(=O)O)CC[C@]3(C)[C@H](CC[C@@H]4[C@@]5(C)CC[C@H](O)C(C)(C)[C@@H]5CC[C@]43C)[C@@H]12 [Compound 19, betulinic acid]
IC50 (P. falciparum; previously reported, ref Cretton et al., 2015, read-out: IC50 against P. falciparum): 19 µM | IC50 (T. b. rhodesiense): 4.2 µM | IC50 (Leishmania spp.): > 25 µM | IC50 (T. cruzi; no significant activity, ref Rocha et al., 2022): > 25 µM

CC(C)=CCC1=C(O)C(=O)c2c(O)ccc(O)c2C1=O [Compound 20]
Selectivity index (SI) T. b. rhodesiense [1]: 2.0 | IC50 ([1]; Trypanosoma brucei, 72 h): 6.9 ± 1.3 µM | Selectivity index (SI) T. cruzi [2]: 0.5 | IC50 [2, 7]: 27.4 ± 1.3 µM | IC50 ([3]; Leishmania donovani, 72 h): 1.9 ± 0.4 µM | Selectivity index (SI) L. donovani [3]: 7.4 | IC50 [4, 8]: 45 ± 4.6 µM | Selectivity index (SI) P. falciparum [4]: 0.3 | IC50 at 72 h (cytotoxicity in L6 cells; [10]): 14 ± 0.4 µM | IC50 (P. falciparum; previously evaluated, ref Kopa et al., 2014, read-out: antiplasmodial activity IC50): 3 µM

CC1(C)C=CC2=C(O1)C(=O)c1c(O)ccc(O[C@@H]3O[C@H](CO)[C@@H](O)[C@H](O)[C@H]3O)c1C2=O [Compound 29]
Selectivity index (SI) T. b. rhodesiense [1]: 3.2 | IC50 ([1]; Trypanosoma brucei, 72 h): 12.5 ± 1.6 µM | IC50 [2, 7]: > 50 µM | IC50 ([3]; Leishmania donovani, 72 h): 11.4 ± 2.3 µM | Selectivity index (SI) L. donovani [3]: 3.5 | IC50 [4, 8]: > 50 µM | IC50 at 72 h (cytotoxicity in L6 cells; [10]): 40.3 ± 0.7 µM | IC50 (T. cruzi; ref Costa et al., 2018): 7.6 µM | IC50 (L. amazonensis): 12.6 µM

Source: paper PMC10326435, “Antiprotozoal activity of natural products from Nigerien plants used in folk medicine” (Frontiers in Pharmacology, 2023)
